Assay results taken from patent US6765010B2, “Compositions and methods for enhancing analgesic potency of tramadol and attenuating its adverse side effects” (Pain Therapeutics, Inc., priority 1999, dated 2004).

Legend:
[1] = system: human subjects/patients with pain following dental surgery; test: Dental surgery pain study: adverse events
[2] = system: human subjects/patients with pain following dental surgery; test: Dental surgery pain study: categorical pain intensity difference (PID, SPID); format: in vivo; conditions: LOCF; for Hourly Pain Intensity Difference (PID) score, Mean / Hourly Pain Intensity Difference (PID) score, Median: ITT subjects, PID as numerical variable
[3] = system: human subjects/patients with pain following dental surgery; test: Dental surgery pain study: time to onset of meaningful pain relief; format: in vivo; conditions: ITT
Description: For this randomized, double-blind, active-controlled and placebo-controlled, parallel-group study, human subjects were randomized into one of the following five treatment groups:
A positive control (T, Group 4) was used to determine the sensitivity of the clinical end points. A negative control (placebo, Group 5) was used to establish the frequency and magnitude of changes in clinical end points that may occur in the absence of an active treatment. A single oral dose of study medication was administered when the subject experienced moderate to severe pain following the surgical extraction of three or four third molars. At least one of the molars was required to be mandibular bony impacted.
A pain assessment was also performed post-treatment. Following dosing, pain intensity and pain relief was recorded at the following times: 30 minutes, 60 minutes and hourly thereafter up to Hour 8 after dosing. All efficacy assessments were recorded by the subject in a diary in response to questioning by the trained observer. […] Pain intensity was measured in response to the question, “How much pain do you have now?” with (1) subject response choices of none, mild, moderate and severe on a categorical scale, and (2) a mark on a 100-mm VAS. […]
Time to remedication (or rescue medication) was analyzed using the Kaplan-Meier estimate to compute the survival distribution function. […]

[4] = in vivo, cited from earlier work
[5] = ITT, counted once per subject (Table 15)
[6] = Severity = Moderate, ITT subjects

COc1cccc([C@@]2(O)CCCC[C@@H]2CN(C)C)c1.Cl (racemic) [tramadol, (1RS,2RS)-2[(dimethylamino)-methyl]-1-(3-methoxyphenyl)-cyclohexanol HCL]
Adverse events: Number (%) with Events ([1]; ITT, Severity = Severe): 3 (6.0%) n (%) | Adverse events: Number of Events ([1]; ITT, Severity = Severe): 3 events | Gastrointestinal Disorders, frequency (percentage) ([1]; ITT, Severity = Severe): 2 (4.0%) n (%) | Gastrointestinal Disorders, occurrence ([1]; ITT, Severity = Severe): 2 events | Headache Nos, frequency (percentage) ([1]; ITT, Severity = Severe): 1 (2.0%) n (%) | Headache Nos, occurrence ([1]; ITT, Severity = Severe): 1 events | Nausea, frequency (percentage) ([1]; ITT, Severity = Severe): 2 (4.0%) n (%) | Nausea, occurrence ([1]; ITT, Severity = Severe): 2 events | Nervous System Disorders, frequency (percentage) ([1]; ITT, Severity = Severe): 1 (2.0%) n (%) | Nervous System Disorders, occurrence ([1]; ITT, Severity = Severe): 1 events | Vomiting Nos, frequency (percentage) ([1]; ITT, Severity = Severe): 1 (2.0%) n (%) | Vomiting Nos, occurrence ([1]; ITT, Severity = Severe): 1 events | Adverse events: Number (%) with Events ([1]; ITT, all severities): 40 (80%) n (%) | Adverse events: Number of Events ([1]; ITT, all severities): 134 events | Dizziness (Exc Vertigo), frequency (percentage) ([1]; ITT, all severities): 15 (30.0%) n (%) | Dizziness (Exc Vertigo), occurrence ([1]; ITT, all severities): 19 events | Gastrointestinal Disorders, frequency (percentage) ([1]; ITT, all severities): 20 (40.0%) n (%) | Gastrointestinal Disorders, occurrence ([1]; ITT, all severities): 40 events | Headache Nos, frequency (percentage) ([1]; ITT, all severities): 28 (56.0%) n (%) | Headache Nos, occurrence ([1]; ITT, all severities): 38 events | Nausea, frequency (percentage) ([1]; ITT, all severities): 20 (40.0%) n (%) | Nausea, occurrence ([1]; ITT, all severities): 28 events | Nervous System Disorders, frequency (percentage) ([1]; ITT, all severities): 40 (80.0%) n (%) | Nervous System Disorders, occurrence ([1]; ITT, all severities): 89 events | Pruritus Nos, frequency (percentage) ([1]; ITT, all severities): 2(4.0%) n (%) | Pruritus Nos, occurrence ([1]; ITT, all severities): 2 events | Sedation, frequency (percentage) ([1]; ITT, all severities): 28 (56.0%) n (%) | Sedation, occurrence ([1]; ITT, all severities): 32 events | Skin & Subcutaneous Tissue Disorders, frequency (percentage) ([1]; ITT, all severities): 2 (4.0%) n (%) | Skin & Subcutaneous Tissue Disorders, occurrence ([1]; ITT, all severities): 2 events | Vomiting Nos, frequency (percentage) ([1]; ITT, all severities): 10 (20.0%) n (%) | Vomiting Nos, occurrence ([1]; ITT, all severities): 12 events | Incidence of Nausea, No [1, 5]: 30 (60.0%) n (%) | Incidence of Nausea, Yes [1, 5]: 20 (40.0%) n (%) | Incidence of Vomiting Nos, No [1, 5]: 40 (80.0%) n (%) | Incidence of Vomiting Nos, Yes [1, 5]: 10 (20.0%) n (%) | Dizziness (Exc Vertigo), frequency (subjects) ([1]; Severity = Mild, ITT subjects): 12 | Dizziness (Exc Vertigo), occurrence (events) ([1]; Severity = Mild, ITT subjects): 16 | Dizziness (Exc Vertigo), percentage of subjects ([1]; Severity = Mild, ITT subjects): 24.0% | Gastrointestinal Disorders, frequency (subjects) ([1]; Severity = Mild, ITT subjects): 6 | Gastrointestinal Disorders, occurrence (events) ([1]; Severity = Mild, ITT subjects): 15 | Gastrointestinal Disorders, percentage of subjects ([1]; Severity = Mild, ITT subjects): 12.0% | Headache Nos, frequency (subjects) ([1]; Severity = Mild, ITT subjects): 17 | Headache Nos, occurrence (events) ([1]; Severity = Mild, ITT subjects): 26 | Headache Nos, percentage of subjects ([1]; Severity = Mild, ITT subjects): 34.0% | Nausea, frequency (subjects) ([1]; Severity = Mild, ITT subjects): 9 | Nausea, occurrence (events) ([1]; Severity = Mild, ITT subjects): 14 | Nausea, percentage of subjects ([1]; Severity = Mild, ITT subjects): 18.0% | Nervous System Disorders, frequency (subjects) ([1]; Severity = Mild, ITT subjects): 23 | Nervous System Disorders, occurrence (events) ([1]; Severity = Mild, ITT subjects): 66 | Nervous System Disorders, percentage of subjects ([1]; Severity = Mild, ITT subjects): 46.0% | Number of Events ([1]; Severity = Mild, ITT subjects): 84 | Number of subjects with adverse events ([1]; Severity = Mild, ITT subjects): 15 | Percentage of subjects with adverse events ([1]; Severity = Mild, ITT subjects): 30.0% | Pruritus Nos, frequency (subjects) ([1]; Severity = Mild, ITT subjects): 2 | Pruritus Nos, occurrence (events) ([1]; Severity = Mild, ITT subjects): 2 | Pruritus Nos, percentage of subjects ([1]; Severity = Mild, ITT subjects): 4.0% | Sedation, frequency (subjects) ([1]; Severity = Mild, ITT subjects): 21 | Sedation, occurrence (events) ([1]; Severity = Mild, ITT subjects): 24 | Sedation, percentage of subjects ([1]; Severity = Mild, ITT subjects): 42.0% | Skin & Subcutaneous Tissue Disorders, frequency (subjects) ([1]; Severity = Mild, ITT subjects): 2 | Skin & Subcutaneous Tissue Disorders, occurrence (events) ([1]; Severity = Mild, ITT subjects): 2 | Skin & Subcutaneous Tissue Disorders, percentage of subjects ([1]; Severity = Mild, ITT subjects): 4.0% | Vomiting Nos, frequency (subjects) ([1]; Severity = Mild, ITT subjects): 3 | Vomiting Nos, occurrence (events) ([1]; Severity = Mild, ITT subjects): 4 | Vomiting Nos, percentage of subjects ([1]; Severity = Mild, ITT subjects): 6.0% | Dizziness (Exc Vertigo), frequency (subjects) [1, 6]: 3 | Dizziness (Exc Vertigo), occurrence (events) [1, 6]: 3 | Dizziness (Exc Vertigo), percentage of subjects [1, 6]: 6.0% | Gastrointestinal Disorders, frequency (subjects) [1, 6]: 12 | Gastrointestinal Disorders, occurrence (events) [1, 6]: 23 | Gastrointestinal Disorders, percentage of subjects [1, 6]: 24.0% | Headache Nos, frequency (subjects) [1, 6]: 10 | Headache Nos, occurrence (events) [1, 6]: 11 | Headache Nos, percentage of subjects [1, 6]: 20.0% | Nausea, frequency (subjects) [1, 6]: 10 | Nausea, occurrence (events) [1, 6]: 13 | Nausea, percentage of subjects [1, 6]: 20.0% | Nervous System Disorders, frequency (subjects) [1, 6]: 16 | Nervous System Disorders, occurrence (events) [1, 6]: 22 | Nervous System Disorders, percentage of subjects [1, 6]: 32.0% | Number of Events [1, 6]: 47 | Number of subjects with adverse events [1, 6]: 22 | Percentage of subjects with adverse events [1, 6]: 44.0% | Sedation, frequency (subjects) [1, 6]: 7 | Sedation, occurrence (events) [1, 6]: 8 | Sedation, percentage of subjects [1, 6]: 14.0% | Vomiting Nos, frequency (subjects) [1, 6]: 9 | Vomiting Nos, occurrence (events) [1, 6]: 10 | Vomiting Nos, percentage of subjects [1, 6]: 18.0% | Hourly Pain Intensity Difference (PID) score, Mean ([2]; Hour 0.5): −0.22 | Hourly Pain Intensity Difference (PID) score, Median ([2]; Hour 0.5): 0 | Hourly Pain Intensity Difference (PID) score, Mean ([2]; Hour 1): −0.30 | Hourly Pain Intensity Difference (PID) score, Median ([2]; Hour 1): 0 | Hourly Pain Intensity Difference (PID) score, Mean ([2]; Hour 2): −0.06 | Hourly Pain Intensity Difference (PID) score, Median ([2]; Hour 2): 0 | Hourly Pain Intensity Difference (PID) score, Mean ([2]; Hour 3): −0.06 | Hourly Pain Intensity Difference (PID) score, Median ([2]; Hour 3): 0 | Hourly Pain Intensity Difference (PID) score, Mean ([2]; Hour 4): 0.06 | Hourly Pain Intensity Difference (PID) score, Median ([2]; Hour 4): 0 | Hourly Pain Intensity Difference (PID) score, Mean ([2]; Hour 5): 0.00 | Hourly Pain Intensity Difference (PID) score, Median ([2]; Hour 5): 0 | Hourly Pain Intensity Difference (PID) score, Mean ([2]; Hour 6): 0.04 | Hourly Pain Intensity Difference (PID) score, Median ([2]; Hour 6): 0 | Hourly Pain Intensity Difference (PID) score, Mean ([2]; Hour 7): −0.02 | Hourly Pain Intensity Difference (PID) score, Median ([2]; Hour 7): 0 | Hourly Pain Intensity Difference (PID) score, Mean ([2]; Hour 8): 0.02 | Hourly Pain Intensity Difference (PID) score, Median ([2]; Hour 8): 0 | SPID up to 4 Hours, Mean ([2]; ITT, single oral dose): −0.58 | SPID up to 4 Hours, Median ([2]; ITT, single oral dose): 0 | SPID up to 6 Hours, Mean ([2]; ITT, single oral dose): −0.54 | SPID up to 6 Hours, Median ([2]; ITT, single oral dose): 0 | SPID up to 8 Hours, Mean ([2]; ITT, single oral dose): −0.54 | SPID up to 8 Hours, Median ([2]; ITT, single oral dose): 0 | Time to Onset of Meaningful Pain Relief, Median ([3]; Kaplan-Meier): 3.85 h | Number of Subjects with Meaningful Pain Relief ([3]; within 8 hours): 17 subjects | potency relative to morphine ([4]; iv): approximately one-tenth | oral analgesic potency versus morphine ([4]; po): equipotent to oral morphine 30 mg
